According to PubChem BioAssay (NCI):
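Step 1: Grow cells in 96-well plates. Step 2: Expose to compound for 48 hours at 5 concentrations. Step 3: Interpolate endpoints linearly; if unreached, use highest concentration. TGI is the concentration that stops growth completely.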

Columns and labels:
Experiment in all cases: DTP human tumour cell line panel, 48 h
MDA-N = test system: MDA-N
M14 melanoma = test system: M14 melanoma
KM12 colon = test system: KM12 colon
SK-MEL-5 melanoma = test system: SK-MEL-5 melanoma
IGROV1 ovarian = test system: IGROV1 ovarian
COLO 205 colon = test system: COLO 205 colon
OVCAR-3 ovarian = test system: OVCAR-3 ovarian
SW-620 colon = test system: SW-620 colon
HCT-116 colon = test system: HCT-116 colon
SR leukemia = test system: SR leukemia
CCRF-CEM leukemia = test system: CCRF-CEM leukemia
RPMI-8226 leukemia = test system: RPMI-8226 leukemia
SF-295 CNS = test system: SF-295 CNS
T-47D breast = test system: T-47D breast
786-0 renal = test system: 786-0 renal
UACC-62 melanoma = test system: UACC-62 melanoma
HS 578T breast = test system: HS 578T breast
CAKI-1 renal = test system: CAKI-1 renal
OVCAR-8 ovarian = test system: OVCAR-8 ovarian
DU-145 prostate = test system: DU-145 prostate
HT29 colon = test system: HT29 colon
SF-539 CNS = test system: SF-539 CNS
NCI-H23 lung = test system: NCI-H23 lung
A498 renal = test system: A498 renal
BT-549 breast = test system: BT-549 breast
UO-31 renal = test system: UO-31 renal
MOLT-4 leukemia = test system: MOLT-4 leukemia
MALME-3M melanoma = test system: MALME-3M melanoma
SK-MEL-2 melanoma = test system: SK-MEL-2 melanoma
MCF7 breast = test system: MCF7 breast
PC-3 prostate = test system: PC-3 prostate
SNB-19 CNS = test system: SNB-19 CNS
SK-OV-3 ovarian = test system: SK-OV-3 ovarian
K-562 leukemia = test system: K-562 leukemia
SN12C renal = test system: SN12C renal
ACHN renal = test system: ACHN renal
HOP-62 NSCLC = test system: HOP-62 NSCLC
NCI-H226 lung = test system: NCI-H226 lung
LOX IMVI melanoma = test system: LOX IMVI melanoma
SF-268 CNS = test system: SF-268 CNS
MDA-MB-435 = test system: MDA-MB-435
A549 NSCLC = test system: A549 NSCLC
SNB-75 CNS = test system: SNB-75 CNS
HOP-92 NSCLC = test system: HOP-92 NSCLC
NCI/ADR-RES ovarian = test system: NCI/ADR-RES ovarian
HL-60(TB) leukemia = test system: HL-60(TB) leukemia
OVCAR-5 ovarian = test system: OVCAR-5 ovarian
SK-MEL-28 melanoma = test system: SK-MEL-28 melanoma
EKVX NSCLC = test system: EKVX NSCLC
NCI-H522 lung = test system: NCI-H522 lung
HCT-15 colon = test system: HCT-15 colon
OVCAR-4 ovarian = test system: OVCAR-4 ovarian
UACC-257 melanoma = test system: UACC-257 melanoma
RXF 393 renal = test system: RXF 393 renal
NCI-H460 lung = test system: NCI-H460 lung
U251 CNS = test system: U251 CNS
MDA-MB-231 breast = test system: MDA-MB-231 breast
HCC-2998 colon = test system: HCC-2998 colon
TK-10 renal = test system: TK-10 renal

Measured: TGI

COc1cc(S(=O)(=O)Nc2ccc(-c3csc(N4C(=O)C(C)SC4c4ccccc4O)n3)cc2)ccc1Cl (stereo not given)
56.4 µM: HL-60(TB) leukemia
49.9 µM: SF-268 CNS
90.4 µM: HS 578T breast
57 µM: COLO 205 colon
55.6 µM: SK-MEL-28 melanoma
91.7 µM: SK-MEL-2 melanoma
95.7 µM: SNB-75 CNS
35.5 µM: MALME-3M melanoma
31 µM: T-47D breast
37 µM: NCI-H522 lung
not listed: OVCAR-4 ovarian | UACC-257 melanoma | RXF 393 renal | NCI-H460 lung | U251 CNS | MDA-MB-231 breast | HCC-2998 colon | TK-10 renal
> 100 µM: all other assays above

CN(C)CS/C(N)=N\C(O)C(Cl)(Cl)Cl (stereo not given)
not listed: COLO 205 colon | RPMI-8226 leukemia | SF-539 CNS | MCF7 breast | SK-OV-3 ovarian | HL-60(TB) leukemia
> 100 µM: all other assays above

CC(C)c1ccc2c(c1)C=C1OC(=O)[C@]3(C)CCC[C@@]2(C)C13 (stereo not given in full)
not listed: A498 renal | MALME-3M melanoma | SK-MEL-2 melanoma | LOX IMVI melanoma | HOP-92 NSCLC | OVCAR-5 ovarian
> 100 µM: all other assays above

COc1ccccc1-c1nc2ccccc2c(=O)[nH]1
not listed: HT29 colon | SF-539 CNS | K-562 leukemia | LOX IMVI melanoma | HOP-92 NSCLC | HL-60(TB) leukemia | SK-MEL-28 melanoma | NCI-H522 lung | TK-10 renal
> 100 µM: all other assays above

CCn1c(-c2ccccc2)nc2c1C(=O)c1ccccc1C2=O
35 µM: OVCAR-8 ovarian
62.9 µM: SF-295 CNS
46.5 µM: NCI-H460 lung
82 µM: HOP-92 NSCLC
63.6 µM: HCT-116 colon
30.3 µM: HT29 colon
82.8 µM: OVCAR-5 ovarian
71.6 µM: NCI-H226 lung
44.1 µM: HCT-15 colon
64.3 µM: PC-3 prostate
49.5 µM: OVCAR-3 ovarian
60.6 µM: BT-549 breast
33.9 µM: NCI/ADR-RES ovarian
23.2 µM: SK-MEL-5 melanoma
36.9 µM: MDA-N
50.9 µM: RXF 393 renal
43 µM: NCI-H522 lung
60.2 µM: UACC-62 melanoma
86 µM: SK-OV-3 ovarian
54 µM: M14 melanoma
85.9 µM: TK-10 renal
21.7 µM: MALME-3M melanoma
51.4 µM: HCC-2998 colon
33.8 µM: MDA-MB-435
91.1 µM: COLO 205 colon | MOLT-4 leukemia
73.8 µM: KM12 colon
30 µM: OVCAR-4 ovarian
79.8 µM: IGROV1 ovarian
not listed: T-47D breast | CAKI-1 renal | A498 renal | UO-31 renal | SK-MEL-2 melanoma | ACHN renal | LOX IMVI melanoma | SF-268 CNS | SNB-75 CNS | EKVX NSCLC | UACC-257 melanoma | MDA-MB-231 breast
> 100 µM: all other assays above

CC(=O)N1C(C(=O)NNc2ccccc2)CSC1c1ccccc1 (stereo not given)
61.8 µM: UACC-62 melanoma
not listed: HL-60(TB) leukemia | SK-MEL-28 melanoma | RXF 393 renal
> 100 µM: all other assays above

c1ccc(/N=N\Nc2ccc(-c3nc4ccccc4o3)cc2)nc1
42.1 µM: SW-620 colon
49.2 µM: COLO 205 colon
85.8 µM: SNB-75 CNS
83 µM: UACC-257 melanoma
88.2 µM: EKVX NSCLC
61.1 µM: MOLT-4 leukemia
55.4 µM: HCC-2998 colon
87.1 µM: T-47D breast
30.3 µM: SK-MEL-5 melanoma
not listed: CCRF-CEM leukemia | RPMI-8226 leukemia | SF-295 CNS | CAKI-1 renal | NCI-H226 lung | RXF 393 renal
> 100 µM: all other assays above

Cn1c(=O)c2nc3nnc(C#N)c(N)n3c2n(C)c1=O
81.2 µM: MALME-3M melanoma
not listed: SW-620 colon | HS 578T breast | NCI-H23 lung | SNB-19 CNS | LOX IMVI melanoma | SNB-75 CNS | UACC-257 melanoma
> 100 µM: all other assays above
